Source: paper PMC10957775, “Integrated chemical characterization, metabolite profiling, and pharmacokinetics analysis of Zhijun Tangshen Decoction by UPLC-Q/TOF-MS” (Frontiers in Pharmacology, 2024)
Where two headings read alike, the source gives them in different places.

Assays:
[1] = set-up: AUC(0→t) / Cmax: unit not given beside the values; settings: rat, in vivo
in vivo = settings: male, Sprague-Dawley, rat, po; for half-life: t1/2
Experimental: (§1) Thirty male Sprague–Dawley rats (200 ± 20 g) were purchased from the Nanjing Qinglongshan Experimental Animal Center (Nanjing, China). […] All rats were divided randomly into two groups: ZJTSD-dosed group (n = 27) and control group (n = 3). The ZJTSD-dosed group was given the ZJTSD solution by gavage (i.g.) at a dosage of 1 mL/100 g body weight of rats, and the control group was given 0.9% normal saline at the same dose, twice a day for a week. After the last administration, the blood was collected from the hepatic portal vein at 15 min, 30 min, 1 h, 2 h, 4 h, 6 h, 8 h, 12 h, and 24 h, and 3 rats were taken at each time point.
(§2) The blood samples of rats were centrifuged at 4,000 rpm for 10 min to obtain the serum. The serum sample (1 mL) was processed with a 3-fold volume using methanol for protein precipitation, with epicoprostanol serving as the internal standard (digoxin and clarithromycin). After vortexing for 3 min, the mixture was centrifuged at 18,000 rpm for 10 min. Subsequently, the supernatant was evaporated at 45°C using a vacuum concentrator. After evaporating the solvent, 150 μL of methanol/water (1:1, v/v) was added, vortexed, sonicated, and then centrifuged at 18,000 rpm for 10 min at 4°C. The resulting supernatant was used for further analysis.
(§3) Liquid chromatographic separation was performed using an AB SCIEX LC™ 2.0 system (AB SCIEX, United States) fitted with an Acquity UPLC BEH C18 column (100 mm × 2.1 mm, 1.7 μm; Ireland). The mobile phases in negative and positive ion modes consisted of 0.1% FA aqueous solution (A) and acetonitrile containing 0.1% FA (B). The program of the elution gradient was set as follows: 0∼5 min, 2%∼35 %B; 5∼7 min, 35%∼50%; 7∼10 min, 50%∼70%; 10∼15 min, 70%∼90 %B; 15∼18 min, 90%∼90 %B; 18∼18.5 min, 90%∼2 %B; and 18.5∼20 min, 2%∼2 %B. The injection volume was 3 µL. The flow rate and the column temperature were set at 0.3 mL/min and 40°C, respectively.
(§4) The mass spectrometry analysis was performed on a SCIEX ZenoTOF™ 7600 system (AB SCIEX, United States), which was calibrated in the high-sensitivity mode for every 10 samples. Spectra were acquired in the TOF/MS-IDA-TOF MS/MS mode with the ESI source operating in positive and negative ion modes. MS parameters were set as follows: ionization source, ESI; spray voltage, 5,500 kV/–4,500 kV; collision energy, 40 V/–40 V; declustering potential, 80 V/–80 V; ion source temperature, 550°C; and scan range, 100–1250 m/z. Data acquisition and processing were performed using SCIEX OS 2.2 and PeakView 2.2.
(§5) A semi-quantitative method was adopted based on the correction peak area versus time ([Wang et al., 2011]; [Lin et al., 2019]). The mean serum time-course profile of pharmacokinetics based on the peak area ratio versus time was plotted using Origin 2018. The kinetic analysis of the peak area ratio (×1,000)–time curve was calculated using Phoenix WinNonlin 8.1 (Phoenix, American) software and illustrated.

DN = tested on: DN; set-up: method as in Guo et al., 2017; settings: in vitro and in vivo; ref Guo et al., 2017; cited from earlier work
DN mice = tested on: DN mice; set-up: method as in Tian et al., 2018; settings: ref Tian et al., 2018; cited from earlier work
[2] = Multi-compound pharmacokinetics of ZJTSD in rat serum, semi-quantitative UPLC-Q/TOF-MS (peak area ratio versus time, non-compartmental); settings: male, Sprague-Dawley, rat, serum (hepatic portal vein blood), po, 1 mL/100 g body weight
Experimental: as §1, §2, §3, §4, §5

Row | Compound | AUC(0→t) [1] | Cmax [1] | AUC (in words) ([1]; po) | Tmax ([1]; po) [h] | elimination half-life (t1/2) ([1]; po) | pharmacokinetic behavior compared with other prototype compounds and metabolites (in words) ([1]; po) | further results
1 | CCCCOC(=O)c1ccccc1C(=O)OCCCC [P49, Dibutyl phthalate] | 542.84±7.58 | 26.50±1.13 |  |  |  |  | MRT last (in vivo): 12.1 ± 0.17 h; Tmax (in vivo): 8.08 ± 6.78 h
2 | O=C1C[C@@H](c2ccc(O)cc2)Oc2cc(O)ccc21 [M18] |  |  |  |  |  |  | detection in serum / absorbed form ([1]; po): detected in vivo
3 | Cc1cc(O)c2c(c1)C(=O)c1cc(C(=O)O)cc(O)c1C2=O [P19, 6-Methyl-rhein] | 406691.82±79143.95 | 79253.50±34585.36 |  |  |  |  | MRT(0→t) [1]: 5.64±1.31; t1/2 [1]: 1.98±0.38
4 | Cc1cc(O)c2c(c1)C(=O)c1cc(O)cc(O)c1C2=O [P16, Emodin] |  |  |  |  |  |  | detection in serum / absorbed form ([1]; po): absorbed as prototype compounds; effect on urinary albumin, serum creatinine and blood urea nitrogen (DN mice): improved urinary albumin, serum creatinine, and blood urea nitrogen levels; MRT last [2]: 5.84 ± 0.37 h; Tmax [2]: 2.83 ± 2.02 h; half-life ([2]; t1/2, prototype compounds of ZJTSD absorbed into rat serum, mean±SD, n=3): 8.19 ± 9.39 h
5 | CCCCCCCCCCCCCCCC(=O)OC[C@@H](O)COP(=O)([O-])OCC[N+](C)(C)C [P50, 1-O-Hexadecanoyl-sn-glycero-3-phosphocholine] | 149276.86±8351.53 | 11488.73±739.96 |  |  |  |  | MRT last (in vivo): 10.2 ± 0.58 h; Tmax (in vivo): 1 ± 0.87 h; half-life (in vivo): 21.9 ± 12.8 h

Now from value to compound, other results behind:

Row | AUC(0→t) [1] | Cmax [1] | AUC (in words) ([1]; po) | Tmax ([1]; po) [h] | elimination half-life (t1/2) ([1]; po) | pharmacokinetic behavior compared with other prototype compounds and metabolites (in words) ([1]; po) | Compound | further results
6 | 119599.26±21102.35 | 26478.39±12536.14 |  |  |  |  | Cc1cc(O)c2c(c1)C(=O)c1cccc(O)c1C2=O [P13, Chrysophanol] | level of exposure in the blood (in words) ([1]; po): higher level of exposure; effect on progression of DN (DN): significantly slowed the progression of DN; MRT last (in vivo): 4.89 ± 0.61 h; Tmax (in vivo): 1.67 ± 2.02 h; half-life (in vivo): 2.42 ± 1.63 h
7 |  |  | greater | ≤ 3.5 | > 7.5 h | better pharmacokinetic behavior | Cc1cc(O)c2c(c1)C(=O)c1cccc(O)c1C2=O [M56] | Cmax / peak concentration (in words) ([1]; po): higher peak concentrations; time to peak (in words) ([1]; po): faster time to peak
8 | 1.99±0.28 | 0.80±0.39 |  |  |  |  | COc1cc2c(=O)c(-c3ccc(O)cc3)coc2cc1O[C@@H]1O[C@H](CO)[C@@H](O)[C@H](O)[C@H]1O [P9, Glycitin] | MRT(0→t) [1]: 4.70±1.01; Tmax [1]: 0.92±0.95; t1/2 [1]: 3.56±1.89
9 | 1.05±0.08 | 0.23±0.06 |  |  |  |  | Cc1cc(O[C@@H]2O[C@H](CO)[C@@H](O)[C@H](O)[C@H]2O)cc2oc(CC(C)O)cc(=O)c12 (stereo partly drawn) [P7, 2-(2-Hydroxypropyl)-5-methyl-7-hydroxychromone-7-O-β-D-glucoside] | MRT(0→t) [1]: 6.76±1.16; Tmax [1]: 0.92±0.95; t1/2 [1]: 7.53±1.65
10 |  |  | greater | ≤ 3.5 | less than 4 h | better pharmacokinetic behavior | O=C(O)c1cc2c(cc1O)C(=O)c1ccccc1C2=O [M28] | 
11 |  |  | greater | ≤ 3.5 | > 7.5 h | better pharmacokinetic behavior | Oc1ccccc1O [M94] | 
12 |  |  | greater | ≤ 3.5 | less than 4 h | better pharmacokinetic behavior | CC(=O)CCc1ccc(OS(=O)(=O)O)cc1 [M85] | 
